# Laboratory results from ChEMBL document CHEMBL4346716, “Synthesis of novel andrographolide beckmann rearrangement derivatives and evaluation of their HK2-related anti-inflammatory activities” (Eur J Med Chem, 2019).
# Activity calls are given as the source filed them. The calls are words filed in the database; no cut-off is given here.
# What was measured:
# RAW264.7 [1] = assay: Antiinflammatory activity in mouse RAW264.7 cells assessed as reduction in LPS-induced IL-6 production preincubated for 3 hrs followed by LPS addition measured after 24 hrs by ELISA; assay type: functional, cell-based
# [2] = target: T1, Hexokinase-2 (Homo sapiens) (UniProt P52789); assay: Non competitive inhibition of recombinant human HK2 expressed in Escherichia coli BL21(DE3) assessed as decrease in Vmax using glucose as substrate by Lineweaver-Burk double reciprocal plot analysis
# T1 sequence (whole entry): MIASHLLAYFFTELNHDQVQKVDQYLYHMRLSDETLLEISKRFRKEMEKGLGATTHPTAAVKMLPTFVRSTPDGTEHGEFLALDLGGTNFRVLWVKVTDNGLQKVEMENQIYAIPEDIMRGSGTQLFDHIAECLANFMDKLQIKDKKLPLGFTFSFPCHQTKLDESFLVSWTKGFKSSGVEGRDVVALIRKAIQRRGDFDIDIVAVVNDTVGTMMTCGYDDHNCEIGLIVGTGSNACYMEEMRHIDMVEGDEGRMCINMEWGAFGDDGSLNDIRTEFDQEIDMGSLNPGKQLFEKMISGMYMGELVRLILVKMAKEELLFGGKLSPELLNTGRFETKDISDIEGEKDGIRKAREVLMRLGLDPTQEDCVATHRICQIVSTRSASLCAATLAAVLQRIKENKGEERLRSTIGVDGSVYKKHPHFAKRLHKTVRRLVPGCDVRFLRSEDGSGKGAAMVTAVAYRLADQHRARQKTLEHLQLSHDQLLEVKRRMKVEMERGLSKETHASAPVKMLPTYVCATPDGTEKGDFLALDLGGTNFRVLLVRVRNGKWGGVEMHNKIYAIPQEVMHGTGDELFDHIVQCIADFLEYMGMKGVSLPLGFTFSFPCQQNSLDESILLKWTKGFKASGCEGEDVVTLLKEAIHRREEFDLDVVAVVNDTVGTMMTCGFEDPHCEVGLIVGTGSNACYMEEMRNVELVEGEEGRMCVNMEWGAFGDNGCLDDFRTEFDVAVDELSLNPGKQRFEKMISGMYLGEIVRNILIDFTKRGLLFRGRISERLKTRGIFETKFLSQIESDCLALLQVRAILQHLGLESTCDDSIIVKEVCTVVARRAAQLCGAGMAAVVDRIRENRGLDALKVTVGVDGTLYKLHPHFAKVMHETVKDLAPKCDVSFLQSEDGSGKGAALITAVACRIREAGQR
# [3] = target: T2, Hexokinase-2 (Mus musculus) (UniProt O08528); assay: Inhibition of HK2 mouse RAW264.7 cells assessed as reduction in LPS-induced glycolysis at 50 uM followed by LPS-stimulation and measured after 4 hrs by seahorse XFe96 analyser based assay; assay type: cell-based
# T2 sequence (whole entry): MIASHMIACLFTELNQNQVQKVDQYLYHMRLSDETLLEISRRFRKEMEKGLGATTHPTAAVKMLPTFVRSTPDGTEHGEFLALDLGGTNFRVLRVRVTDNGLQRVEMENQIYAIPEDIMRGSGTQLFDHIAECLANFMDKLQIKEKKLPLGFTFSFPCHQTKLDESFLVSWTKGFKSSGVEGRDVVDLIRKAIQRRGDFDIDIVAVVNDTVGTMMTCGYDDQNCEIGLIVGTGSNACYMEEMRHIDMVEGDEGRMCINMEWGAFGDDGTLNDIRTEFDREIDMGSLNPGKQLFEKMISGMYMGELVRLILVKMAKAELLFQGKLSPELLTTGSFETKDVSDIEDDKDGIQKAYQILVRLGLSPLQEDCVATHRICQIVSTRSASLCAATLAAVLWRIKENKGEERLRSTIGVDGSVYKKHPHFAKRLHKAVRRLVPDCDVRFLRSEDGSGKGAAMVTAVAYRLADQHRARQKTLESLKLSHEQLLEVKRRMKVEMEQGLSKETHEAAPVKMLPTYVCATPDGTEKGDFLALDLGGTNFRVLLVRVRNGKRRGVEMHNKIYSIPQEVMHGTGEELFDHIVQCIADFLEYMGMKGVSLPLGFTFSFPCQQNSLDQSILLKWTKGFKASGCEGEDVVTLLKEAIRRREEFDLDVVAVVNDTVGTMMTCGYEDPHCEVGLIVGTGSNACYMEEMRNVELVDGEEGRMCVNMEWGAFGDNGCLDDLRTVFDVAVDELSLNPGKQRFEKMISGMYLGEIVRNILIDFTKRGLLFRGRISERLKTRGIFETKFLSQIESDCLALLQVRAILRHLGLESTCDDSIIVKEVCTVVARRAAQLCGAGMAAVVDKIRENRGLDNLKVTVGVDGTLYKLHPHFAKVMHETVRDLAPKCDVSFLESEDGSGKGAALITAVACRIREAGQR
# RAW264.7 [4] = assay: Antiinflammatory activity against mouse RAW264.7 cells assessed as inhibition of LPS-induced iNOS protein expression preincubated for 3 hrs followed by LPS addition measured after 24 hrs by Western blot analysis; assay type: functional, cell-based
# Hexokinase-2 [5] = target: T3, Hexokinase-2 (Homo sapiens, UniProt P52789); assay: Binding affinity to recombinant human HK2 expressed in Escherichia coli BL21(DE3) assessed as dissociation constant measured after 15 mins by microscale thermophoresis assay
# T3 sequence (P52789 whole entry): T1 sequence (whole entry)
# [6] = target: Transcription factor p65 (Mus musculus) (UniProt Q04207); assay: Inhibition of LPS-stimulated NFkappaB p65 nuclear translocation in mouse RAW264.7 cells at 25 uM pretreated for 2 hrs followed by LPS-stimulation and measured after 12 hrs by DAPI staining based fluorescence microscopic analysis; assay type: cell-based
# Transcription factor p65 (Mus musculus), sequence (Q04207 whole entry): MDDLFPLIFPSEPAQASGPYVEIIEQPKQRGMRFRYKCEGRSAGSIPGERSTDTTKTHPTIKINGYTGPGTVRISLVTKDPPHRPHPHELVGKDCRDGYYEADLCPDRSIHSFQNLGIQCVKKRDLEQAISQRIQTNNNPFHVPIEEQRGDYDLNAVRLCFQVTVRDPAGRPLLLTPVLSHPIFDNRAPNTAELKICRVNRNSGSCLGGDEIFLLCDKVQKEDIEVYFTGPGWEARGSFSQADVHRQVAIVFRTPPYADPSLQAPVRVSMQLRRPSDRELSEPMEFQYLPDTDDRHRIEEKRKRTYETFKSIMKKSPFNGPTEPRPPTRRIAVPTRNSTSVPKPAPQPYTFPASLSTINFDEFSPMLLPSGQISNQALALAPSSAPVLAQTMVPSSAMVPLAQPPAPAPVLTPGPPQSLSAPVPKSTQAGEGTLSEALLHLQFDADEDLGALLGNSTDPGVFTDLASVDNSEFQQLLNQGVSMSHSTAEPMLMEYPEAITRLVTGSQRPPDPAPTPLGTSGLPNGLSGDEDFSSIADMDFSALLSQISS
# RAW264.7 [7] = assay: Antiinflammatory activity against mouse RAW264.7 cells assessed as inhibition of LPS-induced COX2 protein expression preincubated for 3 hrs followed by LPS addition measured after 24 hrs by Western blot analysis; assay type: functional, cell-based
# RAW264.7 [8] = assay: Inhibition of LPS-induced NFkappaB protein expression in mouse RAW264.7 cells at 12.5 to 50 uM preincubated for 3 hrs followed by LPS addition and measured after 24 hrs by Western blot analysis; assay type: functional, cell-based
# RAW264.7 [9] = assay: Cytotoxicity against mouse RAW264.7 cells assessed as reduction in cell viability up to 100 uM after 24 hrs by MTT assay; assay type: cell-based; settings: raw264.7, 24 h
# [10] = target: T1, Hexokinase-2 (Homo sapiens); assay: Non competitive inhibition of recombinant human HK2 expressed in Escherichia coli BL21(DE3) assessed as decrease in Vmax using ATP as substrate by Lineweaver-Burk double reciprocal plot analysis
# RAW264.7 [11] = assay: Antiinflammatory activity in mouse RAW264.7 cells assessed as inhibition of LPS-induced NO production preincubated for 3 hrs followed by LPS addition measured after 24 hrs by Griess assay; assay type: functional, cell-based
# Hexokinase-2 [12] = target: T3, Hexokinase-2; assay: Inhibition of recombinant human HK2 expressed in Escherichia coli BL21(DE3) using glucose as substrate preincubated for 10 mins followed by substrate addition in presence of ATP by G6PDH/NADP coupled assay
# RAW264.7 [13] = assay: Antiinflammatory activity in mouse RAW264.7 cells assessed as reduction in LPS-induced IL-1beta production preincubated for 3 hrs followed by LPS addition measured after 24 hrs by ELISA; assay type: functional, cell-based
structure (smiles),measurement,setting,value
C=C1CC[C@H]2[C@@](C)(CCC(=O)N[C@@]2(C)COC(=O)CCCC[C@@H]2CCSS2)[C@@H]1/C=C/C1=CCOC1=O,inhibition,RAW264.7 [1],Dose-dependent effect
same,inhibition,[2],Dose-dependent effect
same,inhibition,[3],Active
same,inhibition,RAW264.7 [4],Dose-dependent effect
same,Kd,Hexokinase-2 [5],5.12 µM
same,inhibition,[6],Active
same,inhibition,RAW264.7 [7],Dose-dependent effect
same,inhibition,RAW264.7 [8],Active
same,Activity,RAW264.7 [9],Non-Toxic
same,inhibition,[10],Dose-dependent effect
same,IC50,RAW264.7 [11],22.4 µM
same,IC50,Hexokinase-2 [12],9.36 µM
same,inhibition,RAW264.7 [13],Dose-dependent effect
